Data set [1] is described as follows: Stability of the compound of Formula (I) formulated as an aqueous solution. In kind it is physicochemical. The text has this:
One approach to overcome the observed instability may be to add one or more components that are antioxidants and/or stabilizing agents to the formulation, however the inclusion of further components to a formulation introduces potential reactivity issues between the compound of Formula (I) and these added components. For instance, the addition of an antioxidant may in fact react with the compound of Formula (I) thus potentially changing the structure and function of the compound, which is undesirable.

Data set [2] can be described thus: Degradation of the compound of Formula (I) when the radiolabelling mixture is mixed at raised temperature. In kind it is physicochemical. The settings on record: temperatures higher than about 40° C., for example 60° C.; mixture with Cu radioisotope and acetate buffer. The text has this: The solution comprising the mixture of the Cu radioisotope, the compound of Formula (I) and the acetate buffer is then allowed to mix for a time and at a particular temperature in order to allow for complexation of the compound of Formula (I) with the Cu radioisotope. The solution may be mixed using an appropriate apparatus. For example, given the small volumes used, an Eppendorf tube may be an appropriate vessel, such that an Eppendorf Thermomixer may be used to both mix and if required, heat the solution. In an embodiment, the solution is mixed at room temperature. In an embodiment, the solution is mixed at about 40° C. […] While a lower temperature of about 21° C., i.e. room temperature, may be used for mixing, the complexation reaction may not be complete at 5 minutes but is completed by about 15 minutes. […] In an embodiment, the solution is mixed at about 40° C. for about 5 minutes. In an embodiment, the solution is mixed at about 40° C. for about 10 minutes. In another embodiment, the solution is mixed at about 40° C. for about 15 minutes. In another embodiment, the solution is mixed at about 21° C. for about 10 minutes. In another embodiment, the solution is mixed at about 21° C. for about 15 minutes.

Structures are written as SMILES.

As to `O=C(O)CCC(NC(=O)NC(CCCCNC(=O)CCCCCCCNC(=O)C(Cc1ccccc1)NC(=O)C(Cc1ccccc1)NC(=O)CCCC(=O)NC12CNCCNCC(NC(=O)CCCC(=O)NC(Cc3ccccc3)C(=O)NC(Cc3ccccc3)C(=O)NCCCCCCCC(=O)NCCCCC(NC(=O)NC(CCC(=O)O)C(=O)O)C(=O)O)(CNCCNC1)CNCCNC2)C(=O)O)C(=O)O` (stereo not drawn) [Formula (I), Sar-bisPSMA], the “stability of the compound in aqueous solution” value in data set [1] (formulated as an aqueous solution, no buffer or stabilizing agent) is “relatively unstable and prone to oxidation and degradation”. For the same compound, the “stability of the compound in a formulation containing a buffer” value in data set [1] (formulation containing a buffer, in the absence of a stabilizing agent) is reported as “requisite stability”. The “degradation of the compound on heating” value in data set [2] was “some degradation”.

These data come from patent US20220313600A1, “FORMULATIONS OF PSMA IMAGING AGENTS” (Clarity Pharmaceuticals Limited, priority 2019, published 2022).
